Test results taken from ChEMBL document CHEMBL1150044, “Brominated polyacetylenes from the Philippines sponge Diplastrella sp” (J Nat Prod, 2003).
Where a name gives a salt, the structure may show the parent alone.

Biological target: Human immunodeficiency virus type 1 integrase (Human immunodeficiency virus 1, UniProt Q7ZJM1)
Experiment: Inhibition of HIV1 recombinant integrase

Human immunodeficiency virus type 1 integrase, sequence (Q7ZJM1 whole entry): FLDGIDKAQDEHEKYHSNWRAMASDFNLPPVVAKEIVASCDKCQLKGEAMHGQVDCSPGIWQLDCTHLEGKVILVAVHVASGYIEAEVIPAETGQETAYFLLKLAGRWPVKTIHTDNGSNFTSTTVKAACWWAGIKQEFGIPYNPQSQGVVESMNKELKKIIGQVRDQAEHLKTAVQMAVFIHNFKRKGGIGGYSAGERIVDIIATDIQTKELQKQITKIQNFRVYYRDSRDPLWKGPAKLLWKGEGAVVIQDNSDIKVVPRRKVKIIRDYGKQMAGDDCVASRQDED

Structure (SMILES) | IC50
OCC(O)C#CC#CCCCCC#CC#C/C=C/Br (stereo not drawn) [DIPLYNE D] | > 157 µM
OCC(O)C#CC#CCCCCCCC#C/C=C\Br (stereo not drawn) [DIPLYNE B] | > 155 µM
O=S(=O)(O)OCC(O)C#CC#CCCCCCCC#C/C=C/Br (stereo not drawn) | 74.4 µM
O=S(=O)(O)OCCC#CC#CCCCCC#CC#C/C=C/Br | 78.3 µM
OCC(O)C#CC#CCCCC/C=C/C#C/C=C/Br (stereo not drawn) [DIPLYNE E] | > 156 µM
OCC(O)C#CC#CCCCCCCC#C/C=C/Br (stereo not drawn) [DIPLYNE A] | > 155 µM
OCC(O)C#CC#CCCCCCCCC/C=C/Br (stereo not drawn) [DIPLYNE C] | > 153 µM
O=S(=O)(O)OCC(O)C#CC#CCCCCCCCC/C=C/Br (stereo not drawn) [DIPLYNE C SULFATE] | 73.7 µM
